Patent US11357817B2, “Immunoproteasome inhibitor” (The Regents of the University of California, priority 2017, dated 2022)
pKi: −log10 of the molar value.

Molecular target: Pf20S (Plasmodium falciparum, UniProt A0A5K1K7U1+Q8IJT1)
Assay: Calculation of inhibition constants (inactivation kinetics), Pf20S
Type: biochemical
Protocol: The rate of AMC release was calculated in the presence of serial dilution of each inhibitor. The rate of product formation were calculated at 30 min intervals for 4 hours, and normalized to activity DMSO control to calculate inactivation curves. Kobs values for each inhibitor concentration were calculated from inactivation curves, and inhibition constants KI and kinact were calculated by non-linear regression of Kobs and inhibitor concentration using GraphPad Prism 6 software.

Sequence of Pf20S (A0A5K1K7U1 entry or part of it): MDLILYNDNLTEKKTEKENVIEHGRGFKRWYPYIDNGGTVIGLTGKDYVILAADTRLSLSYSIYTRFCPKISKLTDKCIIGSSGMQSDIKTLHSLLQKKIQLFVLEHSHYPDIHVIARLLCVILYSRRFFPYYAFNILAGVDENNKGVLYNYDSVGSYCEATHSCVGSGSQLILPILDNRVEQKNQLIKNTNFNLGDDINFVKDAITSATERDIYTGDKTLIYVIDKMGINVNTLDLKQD
Sequence of Pf20S (Q8IJT1 entry or part of it): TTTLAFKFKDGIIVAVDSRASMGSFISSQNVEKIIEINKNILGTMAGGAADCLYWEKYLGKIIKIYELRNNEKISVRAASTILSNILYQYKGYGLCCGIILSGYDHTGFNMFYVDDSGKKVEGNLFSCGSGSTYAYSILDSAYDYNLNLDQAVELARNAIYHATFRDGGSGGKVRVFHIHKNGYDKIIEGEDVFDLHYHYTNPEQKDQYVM

CCCCCC(=O)N[C@@H](C(=O)N[C@@H](CCCC)C(=O)N[C@@H](CC(C)C)C(=O)[C@@]1(C)CO1)C(C)C [Analog 18, (S)-2-((R)-2-hexanamido-3-methylbutanamido)-N—((S)-4-methyl-1-((R)-2-methyloxiran-2-yl)-1-oxopentan-2-yl)hexanamide]
pKi (Pf20S): 6.43 | reduction in potency to the Pf20S proteasome (kinact/Ki, 18 versus 1): 10 fold
